Measurements: ChEMBL document CHEMBL3044736, “Synthesis, characterization, solvatochromic properties, and antimicrobial evaluation of 5-acetyl-2-thioxo-dihydro-pyrimidine-4,6-dione-based chalcones” (2013)
≈ marks a conversion by molar mass, not a printed value.

Assays:
Format in all cases: functional
Penicillium [1] = experiment: Antimicrobial activity against Penicillium wild strain assessed as diameter of growth inhibition zone at 250 ug/ml after 48-96 hr by agar cup diffusion method; conditions: read-out: DIZ
Penicillium [2] = experiment: Antimicrobial activity against Penicillium wild strain assessed as diameter of growth inhibition zone at 100 ug/ml after 48-96 hr by agar cup diffusion method; conditions: read-out: DIZ
Trichophyton rubrum [3] = experiment: Antimicrobial activity against Trichophyton rubrum MTCC 296 assessed as diameter of growth inhibition zone at 100 ug/ml after 48-96 hr by agar cup diffusion method; conditions: read-out: DIZ
Aspergillus clavatus [4] = experiment: Antimicrobial activity against Aspergillus clavatus MTCC 1323 assessed as diameter of growth inhibition zone at 100 ug/ml after 48-96 hr by agar cup diffusion method; conditions: read-out: DIZ
Candida albicans [5] = experiment: Antimicrobial activity against Candida albicans MTCC 227 assessed as diameter of growth inhibition zone at 100 ug/ml after 48-96 hr by agar cup diffusion method; conditions: read-out: DIZ
Penicillium [6] = experiment: Antimicrobial activity against Penicillium wild strain assessed as diameter of growth inhibition zone at 50 ug/ml after 48-96 hr by agar cup diffusion method; conditions: read-out: DIZ
Trichophyton rubrum [7] = experiment: Antimicrobial activity against Trichophyton rubrum MTCC 296 assessed as diameter of growth inhibition zone at 50 ug/ml after 48-96 hr by agar cup diffusion method; conditions: read-out: DIZ
Aspergillus clavatus [8] = experiment: Antimicrobial activity against Aspergillus clavatus MTCC 1323 assessed as diameter of growth inhibition zone at 50 ug/ml after 48-96 hr by agar cup diffusion method; conditions: read-out: DIZ
Candida albicans [9] = experiment: Antimicrobial activity against Candida albicans MTCC 227 assessed as diameter of growth inhibition zone at 50 ug/ml after 48-96 hr by agar cup diffusion method; conditions: read-out: DIZ
Penicillium [10] = experiment: Antimicrobial activity against Penicillium wild strain assessed as diameter of growth inhibition zone at 25 ug/ml after 48-96 hr by agar cup diffusion method; conditions: read-out: DIZ
Trichophyton rubrum [11] = experiment: Antimicrobial activity against Trichophyton rubrum MTCC 296 assessed as diameter of growth inhibition zone at 25 ug/ml after 48-96 hr by agar cup diffusion method; conditions: read-out: DIZ
Aspergillus clavatus [12] = experiment: Antimicrobial activity against Aspergillus clavatus MTCC 1323 assessed as diameter of growth inhibition zone at 25 ug/ml after 48-96 hr by agar cup diffusion method; conditions: read-out: DIZ
Candida albicans [13] = experiment: Antimicrobial activity against Candida albicans MTCC 227 assessed as diameter of growth inhibition zone at 25 ug/ml after 48-96 hr by agar cup diffusion method; conditions: read-out: DIZ
Penicillium [14] = experiment: Antimicrobial activity against Penicillium wild strain by agar cup diffusion method
Aspergillus clavatus [15] = experiment: Antimicrobial activity against Aspergillus clavatus MTCC 1323 by agar cup diffusion method
Pseudomonas aeruginosa [16] = experiment: Antimicrobial activity against Pseudomonas aeruginosa MTCC 1688 assessed as diameter of growth inhibition zone at 25 ug/ml after 18-24 hr by agar cup diffusion method; conditions: read-out: DIZ
Escherichia coli [17] = experiment: Antimicrobial activity against Escherichia coli MTCC 443 assessed as diameter of growth inhibition zone at 25 ug/ml after 18-24 hr by agar cup diffusion method; conditions: read-out: DIZ
Staphylococcus aureus [18] = experiment: Antimicrobial activity against Staphylococcus aureus MTCC 96 assessed as diameter of growth inhibition zone at 25 ug/ml after 18-24 hr by agar cup diffusion method; conditions: read-out: DIZ
Streptococcus pyogenes [19] = experiment: Antimicrobial activity against Streptococcus pyogenes MTCC 442 assessed as diameter of growth inhibition zone at 25 ug/ml after 18-24 hr by agar cup diffusion method; conditions: read-out: DIZ
Klebsiella pneumoniae [20] = experiment: Antimicrobial activity against Klebsiella pneumoniae MTCC 109 by agar cup diffusion method
Escherichia coli [21] = experiment: Antimicrobial activity against Escherichia coli MTCC 443 by agar cup diffusion method
Pseudomonas aeruginosa [22] = experiment: Antimicrobial activity against Pseudomonas aeruginosa MTCC 1688 by agar cup diffusion method
Staphylococcus aureus [23] = experiment: Antimicrobial activity against Staphylococcus aureus MTCC 96 by agar cup diffusion method
Streptococcus pyogenes [24] = experiment: Antimicrobial activity against Streptococcus pyogenes MTCC 442 by agar cup diffusion method
Trichophyton rubrum [25] = experiment: Antimicrobial activity against Trichophyton rubrum MTCC 296 by agar cup diffusion method
Candida albicans [26] = experiment: Antimicrobial activity against Candida albicans MTCC 227 by agar cup diffusion method
Klebsiella pneumoniae [27] = experiment: Antimicrobial activity against Klebsiella pneumoniae MTCC 109 assessed as diameter of growth inhibition zone at 250 ug/ml after 18-24 hr by agar cup diffusion method; conditions: read-out: DIZ
Pseudomonas aeruginosa [28] = experiment: Antimicrobial activity against Pseudomonas aeruginosa MTCC 1688 assessed as diameter of growth inhibition zone at 250 ug/ml after 18-24 hr by agar cup diffusion method; conditions: read-out: DIZ
Escherichia coli [29] = experiment: Antimicrobial activity against Escherichia coli MTCC 443 assessed as diameter of growth inhibition zone at 250 ug/ml after 18-24 hr by agar cup diffusion method; conditions: read-out: DIZ
Staphylococcus aureus [30] = experiment: Antimicrobial activity against Staphylococcus aureus MTCC 96 assessed as diameter of growth inhibition zone at 250 ug/ml after 18-24 hr by agar cup diffusion method; conditions: read-out: DIZ
Streptococcus pyogenes [31] = experiment: Antimicrobial activity against Streptococcus pyogenes MTCC 442 assessed as diameter of growth inhibition zone at 250 ug/ml after 18-24 hr by agar cup diffusion method; conditions: read-out: DIZ
Klebsiella pneumoniae [32] = experiment: Antimicrobial activity against Klebsiella pneumoniae MTCC 109 assessed as diameter of growth inhibition zone at 100 ug/ml after 18-24 hr by agar cup diffusion method; conditions: read-out: DIZ
Pseudomonas aeruginosa [33] = experiment: Antimicrobial activity against Pseudomonas aeruginosa MTCC 1688 assessed as diameter of growth inhibition zone at 100 ug/ml after 18-24 hr by agar cup diffusion method; conditions: read-out: DIZ
Escherichia coli [34] = experiment: Antimicrobial activity against Escherichia coli MTCC 443 assessed as diameter of growth inhibition zone at 100 ug/ml after 18-24 hr by agar cup diffusion method; conditions: read-out: DIZ
Staphylococcus aureus [35] = experiment: Antimicrobial activity against Staphylococcus aureus MTCC 96 assessed as diameter of growth inhibition zone at 100 ug/ml after 18-24 hr by agar cup diffusion method; conditions: read-out: DIZ
Streptococcus pyogenes [36] = experiment: Antimicrobial activity against Streptococcus pyogenes MTCC 442 assessed as diameter of growth inhibition zone at 100 ug/ml after 18-24 hr by agar cup diffusion method; conditions: read-out: DIZ
Klebsiella pneumoniae [37] = experiment: Antimicrobial activity against Klebsiella pneumoniae MTCC 109 assessed as diameter of growth inhibition zone at 50 ug/ml after 18-24 hr by agar cup diffusion method; conditions: read-out: DIZ
Pseudomonas aeruginosa [38] = experiment: Antimicrobial activity against Pseudomonas aeruginosa MTCC 1688 assessed as diameter of growth inhibition zone at 50 ug/ml after 18-24 hr by agar cup diffusion method; conditions: read-out: DIZ
Escherichia coli [39] = experiment: Antimicrobial activity against Escherichia coli MTCC 443 assessed as diameter of growth inhibition zone at 50 ug/ml after 18-24 hr by agar cup diffusion method; conditions: read-out: DIZ
Staphylococcus aureus [40] = experiment: Antimicrobial activity against Staphylococcus aureus MTCC 96 assessed as diameter of growth inhibition zone at 50 ug/ml after 18-24 hr by agar cup diffusion method; conditions: read-out: DIZ
Streptococcus pyogenes [41] = experiment: Antimicrobial activity against Streptococcus pyogenes MTCC 442 assessed as diameter of growth inhibition zone at 50 ug/ml after 18-24 hr by agar cup diffusion method; conditions: read-out: DIZ
Klebsiella pneumoniae [42] = experiment: Antimicrobial activity against Klebsiella pneumoniae MTCC 109 assessed as diameter of growth inhibition zone at 25 ug/ml after 18-24 hr by agar cup diffusion method; conditions: read-out: DIZ
Trichophyton rubrum [43] = experiment: Antimicrobial activity against Trichophyton rubrum MTCC 296 assessed as diameter of growth inhibition zone at 250 ug/ml after 48-96 hr by agar cup diffusion method; conditions: read-out: DIZ
Aspergillus clavatus [44] = experiment: Antimicrobial activity against Aspergillus clavatus MTCC 1323 assessed as diameter of growth inhibition zone at 250 ug/ml after 48-96 hr by agar cup diffusion method; conditions: read-out: DIZ
Candida albicans [45] = experiment: Antimicrobial activity against Candida albicans MTCC 227 assessed as diameter of growth inhibition zone at 250 ug/ml after 48-96 hr by agar cup diffusion method; conditions: read-out: DIZ

In the case of `O=C(/C=C/c1ccc([N+](=O)[O-])cc1)C1C(=O)NC(=S)NC1=O`, the zone of inhibition at 250 µg/mL (Penicillium [1]) is reported as 25 mm, the zone of inhibition at 100 µg/mL (Penicillium [2]) is reported as 23 mm and the zone of inhibition at 100 µg/mL (Trichophyton rubrum [3]) is reported as 23 mm. It also gave a zone of inhibition at 100 µg/mL (Aspergillus clavatus [4]) of 22 mm, a zone of inhibition at 100 µg/mL (Candida albicans [5]) of 25 mm and a zone of inhibition at 50 µg/mL (Penicillium [6]) of 21 mm. It also gave a zone of inhibition at 50 µg/mL (Trichophyton rubrum [7]) of 22 mm, a zone of inhibition at 50 µg/mL (Aspergillus clavatus [8]) of 21 mm and a zone of inhibition at 50 µg/mL (Candida albicans [9]) of 21 mm. The zone of inhibition at 25 µg/mL (Penicillium [10]) was 21 mm, the zone of inhibition at 25 µg/mL (Trichophyton rubrum [11]) was 20 mm and the zone of inhibition at 25 µg/mL (Aspergillus clavatus [12]) was 20 mm. It also gave a zone of inhibition at 25 µg/mL (Candida albicans [13]) of 20 mm, an MFC (Penicillium [14]) of 500 µg/mL (≈ 1570 µM) and an MIC (Penicillium [14]) of 500 µg/mL (≈ 1570 µM). For the same compound, the MFC (Aspergillus clavatus [15]) was 1000 µg/mL (≈ 3130 µM), the MIC (Aspergillus clavatus [15]) was 1000 µg/mL (≈ 3130 µM) and the zone of inhibition at 25 µg/mL (Pseudomonas aeruginosa [16]) was 11 mm. The zone of inhibition at 25 µg/mL (Escherichia coli [17]) was 12 mm, the zone of inhibition at 25 µg/mL (Staphylococcus aureus [18]) was 11 mm and the zone of inhibition at 25 µg/mL (Streptococcus pyogenes [19]) was 12 mm. For the same compound, the MBC (Klebsiella pneumoniae [20]) was 200 µg/mL (≈ 626 µM), the MIC (Klebsiella pneumoniae [20]) was 200 µg/mL (≈ 626 µM) and the MBC (Escherichia coli [21]) was 500 µg/mL (≈ 1570 µM). It also gave an MIC (Escherichia coli [21]) of 250 µg/mL (≈ 783 µM), an MBC (Pseudomonas aeruginosa [22]) of 250 µg/mL (≈ 783 µM) and an MIC (Pseudomonas aeruginosa [22]) of 250 µg/mL (≈ 783 µM). It also gave an MBC (Staphylococcus aureus [23]) of 200 µg/mL (≈ 626 µM), an MIC (Staphylococcus aureus [23]) of 125 µg/mL (≈ 391 µM) and an MBC (Streptococcus pyogenes [24]) of 100 µg/mL (≈ 313 µM). It also gave an MIC (Streptococcus pyogenes [24]) of 100 µg/mL (≈ 313 µM), an MFC (Trichophyton rubrum [25]) of 1000 µg/mL (≈ 3130 µM) and an MIC (Trichophyton rubrum [25]) of 1000 µg/mL (≈ 3130 µM). For the same compound, the MFC (Candida albicans [26]) was 1000 µg/mL (≈ 3130 µM), the MIC (Candida albicans [26]) was 1000 µg/mL (≈ 3130 µM) and the zone of inhibition at 250 µg/mL (Klebsiella pneumoniae [27]) was 16 mm. The zone of inhibition at 250 µg/mL (Pseudomonas aeruginosa [28]) was 20 mm, the zone of inhibition at 250 µg/mL (Escherichia coli [29]) was 23 mm and the zone of inhibition at 250 µg/mL (Staphylococcus aureus [30]) was 20 mm. The zone of inhibition at 250 µg/mL (Streptococcus pyogenes [31]) was 23 mm, the zone of inhibition at 100 µg/mL (Klebsiella pneumoniae [32]) was 15 mm and the zone of inhibition at 100 µg/mL (Pseudomonas aeruginosa [33]) was 18 mm. The zone of inhibition at 100 µg/mL (Escherichia coli [34]) was 19 mm, the zone of inhibition at 100 µg/mL (Staphylococcus aureus [35]) was 18 mm and the zone of inhibition at 100 µg/mL (Streptococcus pyogenes [36]) was 19 mm. For the same compound, the zone of inhibition at 50 µg/mL (Klebsiella pneumoniae [37]) was 13 mm, the zone of inhibition at 50 µg/mL (Pseudomonas aeruginosa [38]) was 13 mm and the zone of inhibition at 50 µg/mL (Escherichia coli [39]) was 15 mm. The zone of inhibition at 50 µg/mL (Staphylococcus aureus [40]) was 13 mm, the zone of inhibition at 50 µg/mL (Streptococcus pyogenes [41]) was 15 mm and the zone of inhibition at 25 µg/mL (Klebsiella pneumoniae [42]) was 11 mm. It also gave a zone of inhibition at 250 µg/mL (Trichophyton rubrum [43]) of 25 mm, a zone of inhibition at 250 µg/mL (Aspergillus clavatus [44]) of 24 mm and a zone of inhibition at 250 µg/mL (Candida albicans [45]) of 25 mm.
